According to patent US8834841B2, “Imaging agents” (priority 2005, dated 2014):

Tests used:
[1] = test system: DU145 Prostate Tumor Cells Implanted SC in SCID Mice; assay: tissue distribution, DU145 tumor-bearing SCID mice; assay type: in vivo
Method: (§1) For the in vitro amino acid uptake studies, all cells can be grown to monolayer confluency in T-175 culture flasks [Corning, Corning, N.Y.] (approx. 1×10^8 cells/flask) in Dulbecco's Modified Eagle's Medium (DMEM) [Sigma, St. Louis, Mo.] in a humidified incubator (37° C., 5% CO2/95% air). Media are supplemented with 10% fetal calf serum [Hyclone, Logan, Utah], and antibiotics (10,000 U/ml penicillin and 10 mg/ml streptomycin) (Sigma, St. Louis, Mo.). For tissue culture passage, monolayer cells are detached by gentle trypsinization, resuspended in complete media, and split 1:10 into new T-flasks. Cultures are passaged weekly, and fed fresh media every 2 to 3 days. To initiate tumor growth in SCID mice, 1×10^6 cells are injected s.c. bilaterally into the flanks (inguinal region) of the recipient animals using a 1 ml syringe with a 27 gauge needle. Ex vivo experiments can be performed with animals containing tumors weighing between 500 mg and 1 g, as estimated by caliper measurement (tumor weight=(π/6)*abc, where a, b and c are the tumor length, width and height, respectively). The compounds of the invention are further evaluated for their tumor specificity and selectivity in tumor-bearing animal models. One can evaluate and compare the transport, accumulation and tissue distribution of each compound in these in vivo animal studies. Tissue distribution of the compounds is measured in SCID mice (average weight, 20-25 g) bearing human tumors as follows. The candidate radioligands (20 uCi in 0.4 ml 0.9% NaCl) are injected into the tail vein of tumor-bearing mice. […] Tissues (blood, heart, liver, lungs, kidneys, bone, thyroid, muscle, brain and tumor) are excised, rinsed in saline, and blotted dry. The tissues are weighed, placed into 12×75 mm glass vials, the radioactivity determined with a gamma counter, and the percent dose/gram calculated. Total activities of blood and muscle are calculated by assuming that they account for 7% and 40% of the total body mass, respectively.

[2] = test system: MB468 Breast Tumor Cells Implanted SC in SCID Mice; assay: tissue distribution, MB468 tumor-bearing SCID mice; assay type: in vivo
Method: as §1

- % Dose/g blood ([1]; 15 Minutes): 2.79 % Dose/g
- % Dose/g bone ([1]; 15 Minutes): 1.05 % Dose/g
- % Dose/g brain ([1]; 15 Minutes): 0.16 % Dose/g
- % Dose/g heart ([1]; 15 Minutes): 2.07 % Dose/g
- % Dose/g kidney ([1]; 15 Minutes): 6.81 % Dose/g
- % Dose/g liver ([1]; 15 Minutes): 2.32 % Dose/g
- % Dose/g lung ([1]; 15 Minutes): 3.35 % Dose/g
- % Dose/g muscle ([1]; 15 Minutes): 0.83 % Dose/g
- % Dose/g pancreas ([1]; 15 Minutes): 29.02 % Dose/g
- % Dose/g spleen ([1]; 15 Minutes): 4.37 % Dose/g
- % Dose/g tumor ([1]; 15 Minutes): 2.94 % Dose/g
- % Dose/g blood ([1]; 30 Minutes): 1.85 % Dose/g
- % Dose/g bone ([1]; 30 Minutes): 1.62 % Dose/g
- % Dose/g brain ([1]; 30 Minutes): 0.16 % Dose/g
- % Dose/g heart ([1]; 30 Minutes): 1.82 % Dose/g
- % Dose/g kidney ([1]; 30 Minutes): 4.47 % Dose/g
- % Dose/g liver ([1]; 30 Minutes): 2.08 % Dose/g
- % Dose/g lung ([1]; 30 Minutes): 2.31 % Dose/g
- % Dose/g muscle ([1]; 30 Minutes): 0.99 % Dose/g
- % Dose/g pancreas ([1]; 30 Minutes): 29.29 % Dose/g
- % Dose/g spleen ([1]; 30 Minutes): 4.74 % Dose/g
- % Dose/g tumor ([1]; 30 Minutes): 3.54 % Dose/g
- % Dose/g blood ([1]; 60 Minutes): 0.80 % Dose/g
- % Dose/g bone ([1]; 60 Minutes): 2.22 % Dose/g
- % Dose/g brain ([1]; 60 Minutes): 0.17 % Dose/g
- % Dose/g heart ([1]; 60 Minutes): 1.32 % Dose/g
- % Dose/g kidney ([1]; 60 Minutes): 1.82 % Dose/g
- % Dose/g liver ([1]; 60 Minutes): 1.22 % Dose/g
- % Dose/g lung ([1]; 60 Minutes): 1.18 % Dose/g
- % Dose/g muscle ([1]; 60 Minutes): 1.15 % Dose/g
- % Dose/g pancreas ([1]; 60 Minutes): 15.00 % Dose/g
- % Dose/g spleen ([1]; 60 Minutes): 2.84 % Dose/g
- % Dose/g tumor ([1]; 60 Minutes): 2.56 % Dose/g
- % Dose/g blood ([1]; 120 Minutes): 0.38 % Dose/g
- % Dose/g bone ([1]; 120 Minutes): 0.65 % Dose/g
- % Dose/g brain ([1]; 120 Minutes): 0.12 % Dose/g
- % Dose/g heart ([1]; 120 Minutes): 0.82 % Dose/g
- % Dose/g kidney ([1]; 120 Minutes): 0.78 % Dose/g
- % Dose/g liver ([1]; 120 Minutes): 0.42 % Dose/g
- % Dose/g lung ([1]; 120 Minutes): 0.45 % Dose/g
- % Dose/g muscle ([1]; 120 Minutes): 0.71 % Dose/g
- % Dose/g pancreas ([1]; 120 Minutes): 5.92 % Dose/g
- % Dose/g spleen ([1]; 120 Minutes): 0.87 % Dose/g
- % Dose/g tumor ([1]; 120 Minutes): 1.84 % Dose/g
- % Dose/g blood ([2]; 15 Minutes): 3.26 % Dose/g
- % Dose/g bone ([2]; 15 Minutes): 1.46 % Dose/g
- % Dose/g brain ([2]; 15 Minutes): 0.23 % Dose/g
- % Dose/g heart ([2]; 15 Minutes): 2.21 % Dose/g
- % Dose/g kidney ([2]; 15 Minutes): 8.62 % Dose/g
- % Dose/g liver ([2]; 15 Minutes): 2.51 % Dose/g
- % Dose/g lung ([2]; 15 Minutes): 4.02 % Dose/g
- % Dose/g muscle ([2]; 15 Minutes): 1.29 % Dose/g
- % Dose/g pancreas ([2]; 15 Minutes): 36.85 % Dose/g
- % Dose/g spleen ([2]; 15 Minutes): 4.47 % Dose/g
- % Dose/g tumor ([2]; 15 Minutes): 2.71 % Dose/g
- % Dose/g blood ([2]; 30 Minutes): 2.39 % Dose/g
- % Dose/g bone ([2]; 30 Minutes): 1.31 % Dose/g
- % Dose/g brain ([2]; 30 Minutes): 0.20 % Dose/g
- % Dose/g heart ([2]; 30 Minutes): 1.89 % Dose/g
- % Dose/g kidney ([2]; 30 Minutes): 6.49 % Dose/g
- % Dose/g liver ([2]; 30 Minutes): 2.49 % Dose/g
- % Dose/g lung ([2]; 30 Minutes): 2.98 % Dose/g
- % Dose/g muscle ([2]; 30 Minutes): 1.12 % Dose/g
- % Dose/g pancreas ([2]; 30 Minutes): 35.25 % Dose/g
- % Dose/g spleen ([2]; 30 Minutes): 4.11 % Dose/g
- % Dose/g tumor ([2]; 30 Minutes): 2.83 % Dose/g
- % Dose/g blood ([2]; 60 Minutes): 1.00 % Dose/g
- % Dose/g bone ([2]; 60 Minutes): 0.92 % Dose/g
- % Dose/g brain ([2]; 60 Minutes): 0.15 % Dose/g
- % Dose/g heart ([2]; 60 Minutes): 1.27 % Dose/g
- % Dose/g kidney ([2]; 60 Minutes): 2.41 % Dose/g
- % Dose/g liver ([2]; 60 Minutes): 1.29 % Dose/g
- % Dose/g lung ([2]; 60 Minutes): 1.37 % Dose/g
- % Dose/g muscle ([2]; 60 Minutes): 1.07 % Dose/g
- % Dose/g pancreas ([2]; 60 Minutes): 19.20 % Dose/g
- % Dose/g spleen ([2]; 60 Minutes): 3.05 % Dose/g
- % Dose/g tumor ([2]; 60 Minutes): 2.19 % Dose/g
- % Dose/g blood ([2]; 120 Minutes): 0.35 % Dose/g
- % Dose/g bone ([2]; 120 Minutes): 0.71 % Dose/g
- % Dose/g brain ([2]; 120 Minutes): 0.13 % Dose/g
- % Dose/g heart ([2]; 120 Minutes): 0.69 % Dose/g
- % Dose/g kidney ([2]; 120 Minutes): 0.89 % Dose/g
- % Dose/g liver ([2]; 120 Minutes): 0.56 % Dose/g
- % Dose/g lung ([2]; 120 Minutes): 0.51 % Dose/g
- % Dose/g muscle ([2]; 120 Minutes): 0.66 % Dose/g
- % Dose/g pancreas ([2]; 120 Minutes): 7.96 % Dose/g
- % Dose/g spleen ([2]; 120 Minutes): 1.01 % Dose/g
- % Dose/g tumor ([2]; 120 Minutes): 1.44 % Dose/g
Structure (SMILES): NC1(C(=O)O)CCC1[18F] [Anti-R,S 2-[^18F]FACBC, (R,S) anti-1-amino-2-[^18F]fluorocyclobutyl-1-carboxylic acid]
